# Reference: patent US6914045B2, “Glycopeptide antibiotics” (Wyeth Holdings Corporation, priority 2001, dated 2005)
# Numbered stars: 1 amine (or outer) side, 2 acyl side, 3 side chain; on linkers, the order of the positions; unused ones are H or OH. Square brackets hold non-standard residues; d marks the D form. Peptide text beside a SMILES is read from it. ξ: configuration not given here. X1 = N=C1NCC(C(O)C(N[*:1])C(=O)[*:2])N1C1OC(CO)C(O)C(O)C1O; ξEnduracididine(βξ-OH,4'ξ) = N=C1NCC(C(O)C(N)C(=O)O)N1; ξCha(3ξ-Me) = CC(C1CCCCC1)C(N)C(=O)O; Cha = N[CH](CC1CCCCC1)C(=O)O
# Tests used:
# Assay in all cases: in vitro antibacterial evaluation, MIC by broth dilution
# Type in all cases: cell-based
# [1] = system: Enterococcus sp.; conditions: broth dilution, 18 hours at 35° C.
# Method in brief: (§1)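 Following National Committee for Clinical Laboratory Standards recommendations (M7-A2), susceptibility was measured by dilution in Muller-Hinton II […]. Bacteria were seeded at 5×10^5 CFU/mL against compound concentrations from 64 down to 0.06 μg/mL.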
# [2] = system: Staphylococcus sp.; conditions: broth dilution, 18 hours at 35° C.; for MIC Staphylococcus aureus (GC 1131): strain GC 1131; for MIC Staphylococcus aureus (ATCC 29213): strain ATCC 29213; for MIC Staphylococcus aureus (GC 3051): strain GC 3051; for MIC Staphylococcus aureus (GC 3053): strain GC 3053; for MIC Staphylococcus aureus (GC 4541): strain GC 4541; for MIC Staphylococcus aureus (GC 4542): strain GC 4542; for MIC Staphylococcus aureus-SMITH (GC 4543): strain GC 4543; for MIC Staphylococcus aureus (GC 4544): strain GC 4544; for MIC Staphylococcus aureus (GC 4545): strain GC 4545; for MIC Staphylococcus haemolyticus (GC 4546): strain GC 4546; for MIC Coagulase Negative Staphylococcus (GC 4547): strain GC 4547; for MIC Coagulase Negative Staphylococcus (GC 4548): strain GC 4548; for MIC Coagulase Negative Staphylococcus (GC 4549): strain GC 4549; for MIC Coagulase Negative Staphylococcus (GC 4551): strain GC 4551
# Method in brief: as §1
# [3] = system: Streptococcus sp.; conditions: broth dilution, 18 hours at 35° C.
# Method in brief: as §1
# [4] = system: Escherichia coli; conditions: 18 hours at 35° C.
compound,measurement,setting,value
CC(C1CCCCC1)C1NC(=O)CNC(=O)C(CO)NC(=O)C(C(O)C2CNC(=N)N2C2OC(CO)C(O)C(O)C2O)NC(=O)C(C(O)C2CNC(=N)N2)NC(=O)C(Cc2ccc(OC3OC(CO)C(OC4OC5COC(c6ccccc6)OC5C(O)C4O)C(O)C3O)cc2)NC1=O (centres unmarked) [Example 201],MIC Enterococcus avium (GC 4558),[1],1 µg/mL
same,MIC Enterococcus faecalis (ATCC 29212),[1],1 µg/mL
same,MIC Enterococcus faecalis (GC 2242),[1],1 µg/mL
same,MIC Enterococcus faecalis (GC 2691),[1],1 µg/mL
same,MIC Enterococcus faecalis (GC 3059),[1],1 µg/mL
same,MIC Enterococcus faecalis (GC 4552),[1],1 µg/mL
same,MIC Enterococcus faecalis (GC 4553),[1],1 µg/mL
same,MIC Enterococcus faecalis (GC 4554),[1],1 µg/mL
same,MIC Enterococcus faecalis (GC 6189),[1],1 µg/mL
same,MIC Enterococcus faecium (GC 2243),[1],1 µg/mL
same,MIC Enterococcus faecium (GC 4556),[1],1 µg/mL
same,MIC Enterococcus faecium (GC 4557),[1],0.5 µg/mL
same,MIC Enterococcus faecalis (ATCC 29212),"[1]; inoculum 5×10^5 CFU/mL, strain ATCC 29212",1 µg/mL
same,MIC Enterococcus faecalis (GC 2242),"[1]; inoculum 5×10^5 CFU/mL, strain GC 2242",1 µg/mL
same,MIC Enterococcus faecium (GC 2243),"[1]; inoculum 5×10^5 CFU/mL, strain GC 2243",1 µg/mL
same,MIC Enterococcus faecalis (GC 2691),"[1]; inoculum 5×10^5 CFU/mL, strain GC 2691",1 µg/mL
same,MIC Enterococcus faecalis (GC 3059),"[1]; inoculum 5×10^5 CFU/mL, strain GC 3059",1 µg/mL
same,MIC Enterococcus faecalis (GC 4552),"[1]; inoculum 5×10^5 CFU/mL, strain GC 4552",1 µg/mL
same,MIC Enterococcus faecalis (GC 4553),"[1]; inoculum 5×10^5 CFU/mL, strain GC 4553",1 µg/mL
same,MIC Enterococcus faecalis (GC 4554),"[1]; inoculum 5×10^5 CFU/mL, strain GC 4554",1 µg/mL
same,MIC Enterococcus faecium (GC 4556),"[1]; inoculum 5×10^5 CFU/mL, strain GC 4556",1 µg/mL
same,MIC Enterococcus faecium (GC 4557),"[1]; inoculum 5×10^5 CFU/mL, strain GC 4557",0.5 µg/mL
same,MIC Enterococcus avium (GC 4558),"[1]; inoculum 5×10^5 CFU/mL, strain GC 4558",1 µg/mL
same,MIC Enterococcus faecalis (GC 6189),"[1]; inoculum 5×10^5 CFU/mL, strain GC 6189",1 µg/mL
same,MIC Staphylococcus aureus (GC 1131),[2]; inoculum 5×10^5 CFU/mL,0.25 µg/mL
same,MIC Staphylococcus aureus (ATCC 29213),[2],0.25 µg/mL
same,MIC Staphylococcus aureus (GC 1131),[2],0.25 µg/mL
same,MIC Staphylococcus aureus (GC 3051),[2],0.5 µg/mL
same,MIC Staphylococcus aureus (GC 3053),[2],0.5 µg/mL
same,MIC Staphylococcus aureus (GC 4541),[2],0.5 µg/mL
same,MIC Staphylococcus aureus (GC 4542),[2],0.25 µg/mL
same,MIC Staphylococcus aureus-SMITH (GC 4543),[2],0.5 µg/mL
same,MIC Staphylococcus aureus (GC 4544),[2],0.25 µg/mL
same,MIC Staphylococcus aureus (GC 4545),[2],0.25 µg/mL
same,MIC Staphylococcus haemolyticus (GC 4546),[2],0.25 µg/mL
same,MIC Coagulase Negative Staphylococcus (GC 4547),[2],0.25 µg/mL
same,MIC Coagulase Negative Staphylococcus (GC 4548),[2],0.25 µg/mL
same,MIC Coagulase Negative Staphylococcus (GC 4549),[2],0.25 µg/mL
same,MIC Coagulase Negative Staphylococcus (GC 4551),[2],0.25 µg/mL
same,MIC Streptococcus agalactiae (GC 4564),[3],<0.12 µg/mL
same,MIC Streptococcus pneumoniae (ATCC 6301),[3],<0.12 µg/mL
same,MIC Streptococcus pneumoniae (GC 1894),[3],<0.12 µg/mL
same,MIC Streptococcus pneumoniae (GC 4565),[3],<0.12 µg/mL
same,MIC Streptococcus pyogenes (GC 4563),[3],<0.12 µg/mL
same,MIC Streptococcus pneumoniae (ATCC 6301),"[3]; inoculum 5×10^5 CFU/mL, strain ATCC 6301",<0.12 µg/mL
same,MIC Streptococcus pneumoniae (GC 1894),"[3]; inoculum 5×10^5 CFU/mL, strain GC 1894",<0.12 µg/mL
same,MIC Streptococcus pyogenes (GC 4563),"[3]; inoculum 5×10^5 CFU/mL, strain GC 4563",<0.12 µg/mL
same,MIC Streptococcus agalactiae (GC 4564),"[3]; inoculum 5×10^5 CFU/mL, strain GC 4564",<0.12 µg/mL
same,MIC Streptococcus pneumoniae (GC 4565),"[3]; inoculum 5×10^5 CFU/mL, strain GC 4565",<0.12 µg/mL
same,MIC Escherichia coli (ATCC 25922),[4],16 µg/mL
same,MIC Escherichia coli (GC 4559),[4],16 µg/mL
same,MIC Escherichia coli (GC 4560),[4],0.25 µg/mL
"CC(C1CCCCC1)C1NC(=O)CNC(=O)C(CO)NC(=O)C(C(O)C2CNC(=N)N2C2OC(CO)C(O)C(O)C2O)NC(=O)C(C(O)C2CNC(=N)N2)NC(=O)C(CC2CCCCC2)NC1=O (stereo not drawn) [Example 53, Cyclo[3-cyclohexylalanyl-3-(2-iminoimidazolidin-4-yl)seryl-3-(3-hexopyranosyl-2-iminoimidazolidin-4-yl)serylserylglycyl-3-cyclohexyl-2-aminobutanyl]] (cyclo(G[ξCha(3ξ-Me)][Cha][ξEnduracididine(βξ-OH,4'ξ)][X1]S); configuration not given here)",MIC Enterococcus avium (GC 4558),[1]; Enterococcus avium (GC 4558),4 µg/mL
same,MIC Enterococcus faecalis (ATCC 29212),[1]; Enterococcus faecalis (ATCC 29212),8 µg/mL
same,MIC Enterococcus faecalis (GC 4552),[1]; Enterococcus faecalis (GC 4552),8 µg/mL
same,MIC Enterococcus faecalis (GC 4553),[1]; Enterococcus faecalis (GC 4553),4 µg/mL
same,MIC Enterococcus faecalis (GC 4554),[1]; Enterococcus faecalis (GC 4554),16 µg/mL
same,MIC Enterococcus faecalis (GC 6189),[1]; Enterococcus faecalis (GC 6189),4 µg/mL
same,MIC Enterococcus faecium (GC 2243),[1]; Enterococcus faecium (GC 2243),2 µg/mL
same,MIC Enterococcus faecium (GC 4556),[1]; Enterococcus faecium (GC 4556),8 µg/mL
same,MIC Enterococcus faecium (GC 4557),[1]; Enterococcus faecium (GC 4557),2 µg/mL
same,MIC Enterococcus faecalis (ATCC 29212),[1]; strain ATCC 29212,8 µg/mL
same,MIC Enterococcus faecalis (GC 2242),[1]; strain GC 2242,8 µg/mL
same,MIC Enterococcus faecium (GC 2243),[1]; strain GC 2243,2 µg/mL
same,MIC Enterococcus faecalis (GC 2691),[1]; strain GC 2691,8 µg/mL
same,MIC Enterococcus faecalis (GC 3059),[1]; strain GC 3059,8 µg/mL
same,MIC Enterococcus faecalis (GC 4552),[1]; strain GC 4552,8 µg/mL
same,MIC Enterococcus faecalis (GC 4553),[1]; strain GC 4553,4 µg/mL
same,MIC Enterococcus faecalis (GC 4554),[1]; strain GC 4554,16 µg/mL
same,MIC Enterococcus faecium (GC 4556),[1]; strain GC 4556,8 µg/mL
same,MIC Enterococcus faecium (GC 4557),[1]; strain GC 4557,2 µg/mL
same,MIC Enterococcus avium (GC 4558),[1]; strain GC 4558,4 µg/mL
same,MIC Enterococcus faecalis (GC 6189),[1]; strain GC 6189,4 µg/mL
same,MIC Staphylococcus aureus (ATCC 29213),[2],2 µg/mL
same,MIC Staphylococcus aureus (GC 1131),[2],4 µg/mL
same,MIC Staphylococcus aureus (GC 3051),[2],2 µg/mL
same,MIC Staphylococcus aureus (GC 3053),[2],4 µg/mL
same,MIC Staphylococcus aureus (GC 4541),[2],4 µg/mL
same,MIC Staphylococcus aureus (GC 4542),[2],2 µg/mL
same,MIC Staphylococcus aureus-SMITH (GC 4543),[2],2 µg/mL
same,MIC Staphylococcus aureus (GC 4544),[2],4 µg/mL
same,MIC Staphylococcus aureus (GC 4545),[2],2 µg/mL
same,MIC Staphylococcus haemolyticus (GC 4546),[2],1 µg/mL
same,MIC Coagulase Negative Staphylococcus (GC 4547),[2],2 µg/mL
same,MIC Coagulase Negative Staphylococcus (GC 4548),[2],2 µg/mL
same,MIC Coagulase Negative Staphylococcus (GC 4549),[2],1 µg/mL
same,MIC Coagulase Negative Staphylococcus (GC 4551),[2],2 µg/mL
same,MIC Streptococcus pneumoniae (ATCC 6301),[3]; strain ATCC 6301,1 µg/mL
same,MIC Streptococcus pneumoniae (GC 1894),[3]; strain GC 1894,1 µg/mL
same,MIC Streptococcus pyogenes (GC 4563),[3]; strain GC 4563,1 µg/mL
same,MIC Streptococcus agalactiae (GC 4564),[3]; strain GC 4564,1 µg/mL
same,MIC Streptococcus pneumoniae (GC 4565),[3]; strain GC 4565,4 µg/mL
same,MIC Escherichia coli (ATCC 25922),"[4]; strain ATCC 25922, broth dilution",128 µg/mL
same,MIC Escherichia coli (GC 4559),"[4]; strain GC 4559, broth dilution",128 µg/mL
same,MIC Escherichia coli (GC 4560),"[4]; strain GC 4560, broth dilution",4 µg/mL
